Results as given in the supplement of paper PMC10307832.

Tests used:
Experiment in all cases: relative viability (nuclei count vs DMSO), 5 days (fraction); higher = more cells survive
[1] = test system: HCC-15
Summary of the method: (§1)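 Medians of duplicate plates are given as relative viability. That measure is the nuclei count in treated wells divided by the count in vehicle wells. Counts were taken on 4× images of lung cancer cell lines in 1536-well plates, 5 days after pin-tool dosing the day after seeding with one drug alone or a fixed anchor-drug dose plus five library-drug doses (not always all listed) in √10 steps.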

[2] = test system: COR-L 105
Summary of the method: as §1

[3] = test system: HCC-78
Summary of the method: as §1

[4] = test system: NCI-H1755
Summary of the method: as §1

[5] = test system: ABC-1
Summary of the method: as §1

[6] = test system: NCI-H2023
Summary of the method: as §1

[7] = test system: NCI-H441
Summary of the method: as §1

[8] = test system: NCI-H1975
Summary of the method: as §1

[9] = test system: NCI-H358
Summary of the method: as §1

[10] = test system: EMC-BAC-2
Summary of the method: as §1

[11] = test system: UMC-11
Summary of the method: as §1

[12] = test system: EPLC-272H
Summary of the method: as §1

[13] = test system: NCI-H2126
Summary of the method: as §1

[14] = test system: HOP-62
Summary of the method: as §1

[15] = test system: NCI-H322M
Summary of the method: as §1

[16] = test system: NCI-H2085
Summary of the method: as §1

[17] = test system: NCI-H3122
Summary of the method: as §1

[18] = test system: CAL-12T
Summary of the method: as §1

[19] = test system: LXF-289
Summary of the method: as §1

[20] = test system: NCI-H1666
Summary of the method: as §1

[21] = test system: NCI-H1915
Summary of the method: as §1

Nc1ccn([C@@H]2O[C@H](CO)[C@@H](O)[C@@H]2O)c(=O)n1 [Cytarabine] + C[C@]1(O)C[C@@H](c2nc(-c3ccc4ccc(-c5ccccc5)nc4c3)c3c(N)nccn32)C1 [Linsitinib] (partner 1 µM)
relative viability ([1]; first compound 0.005 µM): 0.902 | relative viability ([1]; first compound 0.01581 µM): 0.912 | relative viability ([1]; first compound 0.05 µM): 0.903 | relative viability ([1]; first compound 0.1581 µM): 0.72 | relative viability ([1]; first compound 0.5 µM): 0.585 | relative viability ([2]; first compound 0.005 µM): 0.815 | relative viability ([2]; first compound 0.01581 µM): 1.1 | relative viability ([2]; first compound 0.05 µM): 0.628 | relative viability ([2]; first compound 0.1581 µM): 0.443 | relative viability ([2]; first compound 0.5 µM): 0.359 | relative viability ([3]; first compound 0.005 µM): 0.538 | relative viability ([3]; first compound 0.01581 µM): 0.457 | relative viability ([3]; first compound 0.05 µM): 0.432 | relative viability ([3]; first compound 0.1581 µM): 0.275 | relative viability ([3]; first compound 0.5 µM): 0.132 | relative viability ([4]; first compound 0.005 µM): 0.936 | relative viability ([4]; first compound 0.01581 µM): 0.873 | relative viability ([4]; first compound 0.05 µM): 0.858 | relative viability ([4]; first compound 0.1581 µM): 0.31 | relative viability ([4]; first compound 0.5 µM): 0.271 | relative viability ([5]; first compound 0.005 µM): 0.699 | relative viability ([5]; first compound 0.01581 µM): 0.99 | relative viability ([5]; first compound 0.05 µM): 0.909 | relative viability ([5]; first compound 0.1581 µM): 0.71 | relative viability ([5]; first compound 0.5 µM): 0.487 | relative viability ([6]; first compound 0.005 µM): 0.492 | relative viability ([6]; first compound 0.01581 µM): 0.302 | relative viability ([6]; first compound 0.05 µM): 0.149 | relative viability ([6]; first compound 0.1581 µM): 0.0967 | relative viability ([6]; first compound 0.5 µM): 0.0876 | relative viability ([7]; first compound 0.005 µM): 0.467 | relative viability ([7]; first compound 0.01581 µM): 0.476 | relative viability ([7]; first compound 0.05 µM): 0.406 | relative viability ([7]; first compound 0.1581 µM): 0.232 | relative viability ([7]; first compound 0.5 µM): 0.122 | relative viability ([8]; first compound 0.005 µM): 0.97 | relative viability ([8]; first compound 0.01581 µM): 1.08 | relative viability ([8]; first compound 0.05 µM): 0.973 | relative viability ([8]; first compound 0.1581 µM): 0.764 | relative viability ([8]; first compound 0.5 µM): 0.356 | relative viability ([9]; first compound 0.005 µM): 0.571 | relative viability ([9]; first compound 0.01581 µM): 0.628 | relative viability ([9]; first compound 0.05 µM): 0.494 | relative viability ([9]; first compound 0.1581 µM): 0.248 | relative viability ([9]; first compound 0.5 µM): 0.16 | relative viability ([10]; first compound 0.005 µM): 0.695 | relative viability ([10]; first compound 0.01581 µM): 0.751 | relative viability ([10]; first compound 0.05 µM): 0.688 | relative viability ([10]; first compound 0.1581 µM): 0.295 | relative viability ([10]; first compound 0.5 µM): 0.247 | relative viability ([11]; first compound 0.005 µM): 0.637 | relative viability ([11]; first compound 0.01581 µM): 0.637 | relative viability ([11]; first compound 0.05 µM): 0.424 | relative viability ([11]; first compound 0.1581 µM): 0.246 | relative viability ([11]; first compound 0.5 µM): 0.226 | relative viability ([12]; first compound 0.005 µM): 0.883 | relative viability ([12]; first compound 0.01581 µM): 0.834 | relative viability ([12]; first compound 0.05 µM): 0.945 | relative viability ([12]; first compound 0.1581 µM): 0.522 | relative viability ([12]; first compound 0.5 µM): 0.532 | relative viability ([13]; first compound 0.005 µM): 0.71 | relative viability ([13]; first compound 0.01581 µM): 0.661 | relative viability ([13]; first compound 0.05 µM): 0.647 | relative viability ([13]; first compound 0.1581 µM): 0.486 | relative viability ([13]; first compound 0.5 µM): 0.474 | relative viability ([14]; first compound 0.005 µM): 0.781 | relative viability ([14]; first compound 0.01581 µM): 0.666 | relative viability ([14]; first compound 0.05 µM): 0.257 | relative viability ([14]; first compound 0.1581 µM): 0.124 | relative viability ([14]; first compound 0.5 µM): 0.0827 | relative viability ([15]; first compound 0.005 µM): 0.822 | relative viability ([15]; first compound 0.01581 µM): 0.707 | relative viability ([15]; first compound 0.05 µM): 0.628 | relative viability ([15]; first compound 0.1581 µM): 0.464 | relative viability ([15]; first compound 0.5 µM): 0.43 | relative viability ([16]; first compound 0.005 µM): 0.677 | relative viability ([16]; first compound 0.01581 µM): 0.89 | relative viability ([16]; first compound 0.05 µM): 0.859 | relative viability ([16]; first compound 0.1581 µM): 0.585 | relative viability ([16]; first compound 0.5 µM): 0.55 | relative viability ([17]; first compound 0.005 µM): 0.995 | relative viability ([17]; first compound 0.01581 µM): 0.893 | relative viability ([17]; first compound 0.05 µM): 0.948 | relative viability ([17]; first compound 0.1581 µM): 0.72 | relative viability ([17]; first compound 0.5 µM): 0.476 | relative viability ([18]; first compound 0.005 µM): 0.72 | relative viability ([18]; first compound 0.01581 µM): 0.878 | relative viability ([18]; first compound 0.05 µM): 0.747 | relative viability ([18]; first compound 0.1581 µM): 0.39 | relative viability ([18]; first compound 0.5 µM): 0.203 | relative viability ([19]; first compound 0.005 µM): 0.859 | relative viability ([19]; first compound 0.01581 µM): 0.945 | relative viability ([19]; first compound 0.05 µM): 0.786 | relative viability ([19]; first compound 0.1581 µM): 0.493 | relative viability ([19]; first compound 0.5 µM): 0.279 | relative viability ([20]; first compound 0.005 µM): 0.774 | relative viability ([20]; first compound 0.01581 µM): 0.876 | relative viability ([20]; first compound 0.05 µM): 0.703 | relative viability ([20]; first compound 0.1581 µM): 0.344 | relative viability ([20]; first compound 0.5 µM): 0.305 | relative viability ([21]; first compound 0.005 µM): 1.1 | relative viability ([21]; first compound 0.01581 µM): 0.979 | relative viability ([21]; first compound 0.05 µM): 0.842 | relative viability ([21]; first compound 0.1581 µM): 0.54 | relative viability ([21]; first compound 0.5 µM): 0.388
